From ChEMBL document CHEMBL2203135, “Novel progesterone receptor modulators: 4-aryl-phenylsulfonamides” (Bioorg Med Chem Lett, 2012)
Calls of active or inactive are those of the source. The rule behind the calls is not given here.

Columns and labels:
[1] = target: T1, Progesterone receptor (Homo sapiens, UniProt P06401); test: Antagonist activity at progesterone receptor by cellular reporter gene assay; assay type: functional
T1 sequence (P06401 whole entry): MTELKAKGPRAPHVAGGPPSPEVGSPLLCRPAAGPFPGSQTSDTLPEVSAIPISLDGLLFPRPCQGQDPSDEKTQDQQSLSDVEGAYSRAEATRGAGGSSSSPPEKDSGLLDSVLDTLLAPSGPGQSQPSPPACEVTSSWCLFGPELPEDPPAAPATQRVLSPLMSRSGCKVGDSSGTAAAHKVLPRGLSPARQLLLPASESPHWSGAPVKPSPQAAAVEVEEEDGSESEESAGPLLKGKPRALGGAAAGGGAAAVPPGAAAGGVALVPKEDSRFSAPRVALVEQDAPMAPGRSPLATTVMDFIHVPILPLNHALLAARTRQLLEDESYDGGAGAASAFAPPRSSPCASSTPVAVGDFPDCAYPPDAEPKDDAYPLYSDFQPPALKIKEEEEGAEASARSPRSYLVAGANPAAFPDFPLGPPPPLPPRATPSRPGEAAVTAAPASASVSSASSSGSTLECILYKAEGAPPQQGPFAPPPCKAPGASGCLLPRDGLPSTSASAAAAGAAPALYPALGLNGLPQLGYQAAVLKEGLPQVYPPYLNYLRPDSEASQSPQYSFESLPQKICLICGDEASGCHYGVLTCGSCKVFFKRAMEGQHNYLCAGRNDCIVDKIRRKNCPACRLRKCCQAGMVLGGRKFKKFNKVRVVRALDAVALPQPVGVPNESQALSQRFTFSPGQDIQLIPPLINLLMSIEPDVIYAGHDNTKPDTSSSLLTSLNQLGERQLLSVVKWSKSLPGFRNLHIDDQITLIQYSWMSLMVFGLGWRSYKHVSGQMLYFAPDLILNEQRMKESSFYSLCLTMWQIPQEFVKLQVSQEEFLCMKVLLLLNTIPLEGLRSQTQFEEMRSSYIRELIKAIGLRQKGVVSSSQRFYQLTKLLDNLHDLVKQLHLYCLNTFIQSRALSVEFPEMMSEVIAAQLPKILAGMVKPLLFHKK

[2] = target: T2, Androgen receptor (Homo sapiens) (UniProt P10275); test: Agonist activity at androgen receptor by cellular reporter gene assay; assay type: functional
T2 sequence (whole entry): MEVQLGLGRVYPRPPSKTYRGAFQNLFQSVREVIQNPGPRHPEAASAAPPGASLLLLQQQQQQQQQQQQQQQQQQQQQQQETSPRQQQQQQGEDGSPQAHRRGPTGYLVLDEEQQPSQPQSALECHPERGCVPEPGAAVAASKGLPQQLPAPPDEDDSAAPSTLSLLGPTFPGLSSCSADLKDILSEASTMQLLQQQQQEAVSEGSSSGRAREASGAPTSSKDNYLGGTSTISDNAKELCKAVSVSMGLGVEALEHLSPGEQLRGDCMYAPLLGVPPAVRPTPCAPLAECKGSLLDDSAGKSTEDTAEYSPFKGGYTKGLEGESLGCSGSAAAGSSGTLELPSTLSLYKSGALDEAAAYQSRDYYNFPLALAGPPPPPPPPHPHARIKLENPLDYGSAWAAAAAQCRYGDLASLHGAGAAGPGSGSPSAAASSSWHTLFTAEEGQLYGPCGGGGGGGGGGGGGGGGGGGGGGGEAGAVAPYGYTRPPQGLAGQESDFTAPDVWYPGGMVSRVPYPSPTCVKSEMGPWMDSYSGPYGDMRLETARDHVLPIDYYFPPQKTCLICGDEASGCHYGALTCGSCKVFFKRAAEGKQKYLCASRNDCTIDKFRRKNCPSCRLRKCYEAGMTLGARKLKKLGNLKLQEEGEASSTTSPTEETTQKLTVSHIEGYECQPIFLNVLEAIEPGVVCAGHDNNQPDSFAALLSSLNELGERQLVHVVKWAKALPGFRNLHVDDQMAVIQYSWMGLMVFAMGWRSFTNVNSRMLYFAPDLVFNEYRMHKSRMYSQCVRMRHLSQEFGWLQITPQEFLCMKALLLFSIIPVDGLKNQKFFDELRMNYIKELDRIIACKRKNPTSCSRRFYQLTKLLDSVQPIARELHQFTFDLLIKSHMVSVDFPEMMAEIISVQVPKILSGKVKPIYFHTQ

[3] = target: T1, Progesterone receptor; test: Antagonist activity against progesterone receptor in human T47D cells by alkaline phosphatase assay; assay type: functional, cell-based
[4] = target: T3, Mineralocorticoid receptor (Homo sapiens) (UniProt P08235); test: Agonist activity at mineralocorticoid receptor by cellular reporter gene assay; assay type: functional
T3 sequence (whole entry): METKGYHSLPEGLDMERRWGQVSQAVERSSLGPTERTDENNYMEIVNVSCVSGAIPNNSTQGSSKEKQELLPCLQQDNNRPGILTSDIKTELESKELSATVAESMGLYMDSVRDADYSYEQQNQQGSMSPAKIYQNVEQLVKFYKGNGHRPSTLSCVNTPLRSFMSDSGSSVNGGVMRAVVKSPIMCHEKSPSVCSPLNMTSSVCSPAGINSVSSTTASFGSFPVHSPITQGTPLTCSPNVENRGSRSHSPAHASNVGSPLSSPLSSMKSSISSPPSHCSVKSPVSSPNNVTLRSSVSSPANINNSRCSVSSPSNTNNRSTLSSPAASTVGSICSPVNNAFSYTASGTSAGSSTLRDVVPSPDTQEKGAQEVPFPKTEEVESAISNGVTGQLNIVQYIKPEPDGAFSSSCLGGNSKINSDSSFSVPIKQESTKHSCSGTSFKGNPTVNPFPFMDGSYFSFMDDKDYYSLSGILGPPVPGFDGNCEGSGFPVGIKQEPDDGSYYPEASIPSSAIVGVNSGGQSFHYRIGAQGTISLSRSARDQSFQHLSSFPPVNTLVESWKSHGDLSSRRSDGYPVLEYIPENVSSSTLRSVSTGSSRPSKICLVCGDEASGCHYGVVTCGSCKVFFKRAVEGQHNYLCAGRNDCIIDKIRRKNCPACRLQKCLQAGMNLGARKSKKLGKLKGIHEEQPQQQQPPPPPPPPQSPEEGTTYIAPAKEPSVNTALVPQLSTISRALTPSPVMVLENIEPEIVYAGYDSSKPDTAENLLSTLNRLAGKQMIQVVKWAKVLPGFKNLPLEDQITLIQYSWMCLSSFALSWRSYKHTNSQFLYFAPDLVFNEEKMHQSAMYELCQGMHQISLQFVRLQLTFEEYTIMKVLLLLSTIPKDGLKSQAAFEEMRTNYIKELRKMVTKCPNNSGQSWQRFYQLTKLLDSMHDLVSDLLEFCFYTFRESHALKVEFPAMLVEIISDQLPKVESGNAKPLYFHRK

[5] = target: T4, Androgen receptor (Homo sapiens, UniProt P10275); test: Antagonist activity at androgen receptor by cellular reporter gene assay; assay type: functional
T4 sequence (P10275 whole entry): T2 sequence (whole entry)

IC50 [1] [nM]	Activity [2]	IC50 [3] [nM]	Activity [4]	IC50 [5] [nM]	Compound
0.3	inactive	0.3	inactive	9	COC[C@]1(OC)CC[C@H]2[C@@H]3CCC4=CC(=O)CCC4=C3[C@@H](c3ccc(/C=N/O)cc3)C[C@@]21C [ASOPRISNIL]
11.7	inactive	12	inactive	100	CCS(=O)(=O)Nc1cc(F)c(-c2ccc(C#N)n2C)c(F)c1
